Experimental data: ChEMBL document CHEMBL1131253, “A pyridoxine cyclic phosphate and its 6-azoaryl derivative selectively potentiate and antagonize activation of P2X1 receptors” (J Med Chem, 1998)

Legend:
P2X purinoceptor 3 = target: T1, P2X purinoceptor 3 (Rattus norvegicus, UniProt P49654); assay: Compound was tested in a functional ion channel assay of ATP-induced current at recombinant rat P2X3 receptor expressed in Xenopus oocytes.; format: cell-based, Oocyte
T1 sequence (P49654 whole entry): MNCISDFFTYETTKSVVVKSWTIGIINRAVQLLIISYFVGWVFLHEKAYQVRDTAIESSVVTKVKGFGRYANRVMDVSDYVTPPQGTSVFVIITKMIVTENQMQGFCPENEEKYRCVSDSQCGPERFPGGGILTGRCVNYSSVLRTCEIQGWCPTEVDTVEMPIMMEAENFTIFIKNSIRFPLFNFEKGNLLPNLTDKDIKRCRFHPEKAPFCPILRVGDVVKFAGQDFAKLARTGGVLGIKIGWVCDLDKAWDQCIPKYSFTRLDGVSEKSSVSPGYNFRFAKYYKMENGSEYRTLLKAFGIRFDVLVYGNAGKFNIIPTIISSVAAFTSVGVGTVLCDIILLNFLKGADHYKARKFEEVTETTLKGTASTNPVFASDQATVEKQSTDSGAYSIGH

P2X purinoceptor 1 = target: T2, P2X purinoceptor 1 (Rattus norvegicus, UniProt P47824); assay: Compound was tested in a functional ion channel assay of ATP-induced current at recombinant rat P2X1 receptor expressed in Xenopus oocytes.; format: cell-based, Oocyte
T2 sequence (P47824 whole entry): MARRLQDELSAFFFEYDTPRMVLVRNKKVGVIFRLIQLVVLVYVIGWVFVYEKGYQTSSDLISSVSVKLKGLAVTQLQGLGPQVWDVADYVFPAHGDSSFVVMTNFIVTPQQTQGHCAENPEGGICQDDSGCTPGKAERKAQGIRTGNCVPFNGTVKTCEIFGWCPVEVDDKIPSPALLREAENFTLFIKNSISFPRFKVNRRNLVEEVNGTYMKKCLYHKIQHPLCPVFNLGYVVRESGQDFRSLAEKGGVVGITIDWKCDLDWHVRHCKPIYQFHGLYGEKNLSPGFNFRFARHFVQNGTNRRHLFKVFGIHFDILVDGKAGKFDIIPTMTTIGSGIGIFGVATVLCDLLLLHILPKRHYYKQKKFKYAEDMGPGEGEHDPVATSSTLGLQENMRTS

IC50 (P2X purinoceptor 3) [µM] | IC50 (P2X purinoceptor 1) [µM] | EC50 (P2X purinoceptor 1) [µM] | SMILES
58.3 | 10.2 |  | Cc1nc(/N=N/c2cc(S(=O)(=O)O)ccc2S(=O)(=O)O)c2c(c1O)COP(=O)(O)OC2
 | 0.0425 |  | Cc1nc(/N=N/c2cc(S(=O)(=O)O)ccc2S(=O)(=O)O)c(COP(=O)(O)O)c(C=O)c1O [ISOPPADS]
0.24 | 0.0985 |  | Cc1nc(/N=N/c2ccc(S(=O)(=O)O)cc2S(=O)(=O)O)c(COP(=O)(O)O)c(C=O)c1O
 |  | 5.9 | Cc1ncc2c(c1O)COP(=O)(O)OC2
